Source: patent publication US4874856A, “3-(substituted)propenyl-7-(aminothiazolylacetamido) ceph-3-em-4-carboxylic acids and esters thereof” (Bristol-Myers Company, priority 1987, dated 1989)
In brackets after ≈: the same amount, converted by molar mass. Where two headings read alike, the source gives them in different places.

Tests used:
Test in all cases: In vitro MIC, Mueller-Hinton agar, inoculum 10^6 cells/ml
Format in all cases: cell-based
[1] = test system: Serratia marcescens
Source text: (§1) Table 6 is a comparison of the in vitro antibacterial activities of Compound 29 and the vinyl homolog thereof FK-482 against clinically important pathogens. Thirty-seven organisms were more than 4-fold more susceptible to Compound 29 than to FK-482. FK-482 has the following formula and is described by Takaya, et al. in U.S. Pat. No. 4,559,334 patented Dec. 17, 1985 (filed Oct. 20, 1983). [drawing 14]
(§2) *; Geometric mean of MIC (μg/ml)
(§3) Mueller-Hinton agar Inoculum size; 10^6 cells/ml

[2] = test system: Enterobacter aerogenes; settings: Klebsiella aerogenes
Source text: as §1, §2, §3

[3] = test system: Serratia species
Source text: as §1, §2, §3

[4] = test system: Providencia rettgeri
Source text: as §1, §2, §3

[5] = test system: Proteus mirabilis
Source text: as §1, §2, §3

[6] = test system: Proteus vulgaris
Source text: as §1, §2, §3

[7] = test system: Citrobacter freundii
Source text: as §1, §2, §3

[8] = test system: Enterobacter cloacae
Source text: as §1, §2, §3

[9] = test system: Morganella morganii
Source text: as §1, §2, §3

C=CC1=C(C(=O)O)N2C(=O)[C@@H](NC(=O)/C(=N\O)c3csc(N)n3)[C@H]2SC1 [FK-482, reference compound]
MIC ([1]; (GM) of the Serratia marcescens strains, read-out: Geometric mean of MIC): 31 µg/mL (≈ 78.4 µM) | MIC ([1]; strain A20019, read-out: MIC): 12.5 µg/mL (≈ 31.6 µM) | MIC ([1]; strain A20222, read-out: MIC): 25 µg/mL (≈ 63.2 µM) | MIC ([1]; strain A20333, read-out: MIC): > 50 µg/mL | MIC ([1]; strain A20334, read-out: MIC): > 50 µg/mL | MIC ([1]; strain A20335, read-out: MIC): 12.5 µg/mL (≈ 31.6 µM) | MIC ([1]; strain A20336, read-out: MIC): 12.5 µg/mL (≈ 31.6 µM) | MIC ([1]; strain A20442, read-out: MIC): 3.1 µg/mL (≈ 7.84 µM) | MIC ([1]; strain A20459, read-out: MIC): > 50 µg/mL | MIC ([1]; strain A20460, read-out: MIC): 50 µg/mL (≈ 126 µM) | MIC ([1]; strain A20461, read-out: MIC): > 50 µg/mL | MIC ([2]; (GM) of the Enterobacter aerogenes strains, read-out: Geometric mean of MIC): 9.8 µg/mL (≈ 24.8 µM) | MIC ([2]; strain A20940, read-out: MIC): > 50 µg/mL | MIC ([2]; strain A20941, read-out: MIC): 6.3 µg/mL (≈ 15.9 µM) | MIC ([2]; strain A20943, read-out: MIC): 6.3 µg/mL (≈ 15.9 µM) | MIC ([2]; strain A20958, read-out: MIC): 6.3 µg/mL (≈ 15.9 µM) | MIC ([2]; strain A20961, read-out: MIC): 12.5 µg/mL (≈ 31.6 µM) | MIC ([2]; strain A20966, read-out: MIC): 6.3 µg/mL (≈ 15.9 µM) | MIC ([2]; strain A20971, read-out: MIC): 6.3 µg/mL (≈ 15.9 µM) | MIC ([2]; strain A20985, read-out: MIC): > 50 µg/mL | MIC ([2]; strain A20994, read-out: MIC): 25 µg/mL (≈ 63.2 µM) | MIC ([2]; strain A20996, read-out: MIC): 3.1 µg/mL (≈ 7.84 µM) | MIC ([2]; strain A21013, read-out: MIC): 6.3 µg/mL (≈ 15.9 µM) | MIC ([2]; strain A21036, read-out: MIC): 50 µg/mL (≈ 126 µM) | MIC ([2]; strain A21037, read-out: MIC): 3.1 µg/mL (≈ 7.84 µM) | MIC ([2]; strain A21038, read-out: MIC): 1.6 µg/mL (≈ 4.05 µM) | MIC ([2]; strain A21039, read-out: MIC): 6.3 µg/mL (≈ 15.9 µM) | MIC ([2]; strain A21043, read-out: MIC): 25 µg/mL (≈ 63.2 µM) | MIC ([2]; strain A21044, read-out: MIC): 25 µg/mL (≈ 63.2 µM) | MIC ([2]; strain A21118, read-out: MIC): > 50 µg/mL | MIC ([2]; strain A21120, read-out: MIC): 6.3 µg/mL (≈ 15.9 µM) | MIC ([2]; strain A21130-1, read-out: MIC): 6.3 µg/mL (≈ 15.9 µM) | MIC ([2]; strain A21131, read-out: MIC): 6.3 µg/mL (≈ 15.9 µM) | MIC ([2]; strain A21152, read-out: MIC): 1.6 µg/mL (≈ 4.05 µM) | MIC ([2]; strain A21155, read-out: MIC): 6.3 µg/mL (≈ 15.9 µM) | MIC ([2]; strain A21158, read-out: MIC): 6.3 µg/mL (≈ 15.9 µM) | MIC ([2]; strain A21503, read-out: MIC): 6.3 µg/mL (≈ 15.9 µM) | MIC ([3]; (GM) of the Serratia species strains, read-out: Geometric mean of MIC): > 50 µg/mL | MIC ([3]; strain 6-330, read-out: MIC): 25 µg/mL (≈ 63.2 µM) | MIC ([3]; strain 6-427, read-out: MIC): 25 µg/mL (≈ 63.2 µM) | MIC ([3]; strain 6-920, read-out: MIC): > 50 µg/mL | MIC ([3]; strain 7-255, read-out: MIC): > 50 µg/mL | MIC ([3]; strain 7-454, read-out: MIC): > 50 µg/mL | MIC ([3]; strain 7-2322, read-out: MIC): > 50 µg/mL | MIC ([3]; strain 8-185, read-out: MIC): > 50 µg/mL | MIC ([3]; strain 8-513, read-out: MIC): > 50 µg/mL | MIC ([3]; strain 8-785, read-out: MIC): > 50 µg/mL | MIC ([3]; strain 8-1537, read-out: MIC): > 50 µg/mL | MIC ([3]; strain 9-50, read-out: MIC): > 50 µg/mL | MIC ([3]; strain 9-690, read-out: MIC): > 50 µg/mL | MIC ([4]; (GM) of the Providencia rettgeri strains, read-out: Geometric mean of MIC): 0.07 µg/mL (≈ 0.177 µM) | MIC ([4]; IFO3850, strain IFO 3850 MS-1, read-out: MIC): 0.013 µg/mL (≈ 0.0329 µM) | MIC ([4]; strain A 9637, read-out: MIC): < 0.0063 µg/mL | MIC ([4]; strain A15167 (first line), read-out: MIC): 0.013 µg/mL (≈ 0.0329 µM) | MIC ([4]; strain A15167 (second line), read-out: MIC): 0.1 µg/mL (≈ 0.253 µM) | MIC ([4]; strain A20645, read-out: MIC): 6.3 µg/mL (≈ 15.9 µM) | MIC ([4]; strain A20915, read-out: MIC): 3.1 µg/mL (≈ 7.84 µM) | MIC ([4]; strain A20920, read-out: MIC): 0.013 µg/mL (≈ 0.0329 µM) | MIC ([4]; strain A20921, read-out: MIC): 0.025 µg/mL (≈ 0.0632 µM) | MIC ([4]; strain A21205, read-out: MIC): 0.1 µg/mL (≈ 0.253 µM) | MIC ([4]; strain A21270, read-out: MIC): 0.1 µg/mL (≈ 0.253 µM) | MIC ([5]; (GM) of the Proteus mirabilis strains, read-out: Geometric mean of MIC): 0.14 µg/mL (≈ 0.354 µM) | MIC ([5]; IFO3849, strain IFO 3849 MS-1, read-out: MIC): 0.2 µg/mL (≈ 0.506 µM) | MIC ([5]; strain A 9554, read-out: MIC): 0.2 µg/mL (≈ 0.506 µM) | MIC ([5]; strain A 9702, read-out: MIC): 0.1 µg/mL (≈ 0.253 µM) | MIC ([5]; strain A 9716, read-out: MIC): 0.2 µg/mL (≈ 0.506 µM) | MIC ([5]; strain A20119, read-out: MIC): 0.1 µg/mL (≈ 0.253 µM) | MIC ([5]; strain A20342, read-out: MIC): 0.2 µg/mL (≈ 0.506 µM) | MIC ([5]; strain A20454, read-out: MIC): 0.1 µg/mL (≈ 0.253 µM) | MIC ([5]; strain A21222, read-out: MIC): 0.1 µg/mL (≈ 0.253 µM) | MIC ([6]; (GM) of the Proteus vulgaris strains, read-out: Geometric mean of MIC): 6.3 µg/mL (≈ 15.9 µM) | MIC ([6]; strain A 9436, read-out: MIC): 0.4 µg/mL (≈ 1.01 µM) | MIC ([6]; strain A 9526, read-out: MIC): 25 µg/mL (≈ 63.2 µM) | MIC ([6]; strain A 9699, read-out: MIC): 25 µg/mL (≈ 63.2 µM) | MIC ([6]; strain AKH-26, read-out: MIC): > 50 µg/mL | MIC ([6]; strain HX-19 MS-1, read-out: MIC): 0.8 µg/mL (≈ 2.02 µM) | MIC ([6]; strain OX-19 MS-1, read-out: MIC): 3.1 µg/mL (≈ 7.84 µM) | MIC ([7]; (GM) of the Citrobacter freundii strains, read-out: Geometric mean of MIC): 4.1 µg/mL (≈ 10.4 µM) | MIC ([7]; strain A21312, read-out: MIC): > 50 µg/mL | MIC ([7]; strain A22140, read-out: MIC): 3.1 µg/mL (≈ 7.84 µM) | MIC ([7]; strain A22141, read-out: MIC): 3.1 µg/mL (≈ 7.84 µM) | MIC ([7]; strain A22142, read-out: MIC): 0.8 µg/mL (≈ 2.02 µM) | MIC ([7]; strain A22160, read-out: MIC): 6.3 µg/mL (≈ 15.9 µM) | MIC ([7]; strain A22161, read-out: MIC): 0.8 µg/mL (≈ 2.02 µM) | MIC ([7]; strain A22166, read-out: MIC): 3.1 µg/mL (≈ 7.84 µM) | MIC ([7]; strain A22175, read-out: MIC): 0.8 µg/mL (≈ 2.02 µM) | MIC ([7]; strain A22176, read-out: MIC): 3.1 µg/mL (≈ 7.84 µM) | MIC ([7]; strain A22177, read-out: MIC): 50 µg/mL (≈ 126 µM) | MIC ([8]; (GM) of the Enterobacter cloacae strains, read-out: Geometric mean of MIC): 21 µg/mL (≈ 53.1 µM) | MIC ([8]; strain A 9655, read-out: MIC): > 50 µg/mL | MIC ([8]; strain A 9659, read-out: MIC): > 50 µg/mL | MIC ([8]; strain A20344, read-out: MIC): > 50 µg/mL | MIC ([8]; strain A20364, read-out: MIC): 6.3 µg/mL (≈ 15.9 µM) | MIC ([8]; strain A20464, read-out: MIC): 3.1 µg/mL (≈ 7.84 µM) | MIC ([8]; strain A20650, read-out: MIC): 0.8 µg/mL (≈ 2.02 µM) | MIC ([8]; strain A22551, read-out: MIC): > 50 µg/mL | MIC ([9]; (GM) of the Morganella morganii strains, read-out: Geometric mean of MIC): 25 µg/mL (≈ 63.2 µM) | MIC ([9]; IFO3843, strain IFO 3843 MS-1, read-out: MIC): 12.5 µg/mL (≈ 31.6 µM) | MIC ([9]; strain A 9636, read-out: MIC): > 50 µg/mL | MIC ([9]; strain A20455, read-out: MIC): 12.5 µg/mL (≈ 31.6 µM)
